Test results published in patent US20210115494A1, “Improved method for measurement of microbial biomass” (Mycometer A/S, priority 2018, published 2021).

Tests used:
[1] = test system: NAHA activity from Stachybotrys chartarum; assay: NAHA activity assay, Stachybotrys chartarum; type: biochemical
Method: (§1) In order to determine NAHA activity in different samples, the technology in WO 98/033934 was employed: A sample containing a dried or freeze dried organism is added to a buffer solution containing 4-Methylumbelliferyl N-acetyl-β-D-glucosaminide in a concentration of 20 μM. The reaction-time is varied depending on the ambient temperature and according to a reaction-time/temperature data sheet previously developed for fungal NAHA activity at various temperatures, and is 30 minutes at 23° C. The resulting fluorescence formed during the reaction time is monitored in a calibrated fluorometer.
(§2) Experiments were conducted where varying concentrations of AgNO3 was added to an analysis substrate. Furthermore, the experiments where performed on dried or freeze dried materials where both intact and fragmented cells are to be expected to be present.
(§3) Experiments analogous to those in example 1 were carried out, but instead of using non-specific inhibitors, the effect of different concentrations of DNJNAc on the NAHA activity in various biomass containing samples was investigated.

fungal NAHA activity = assay: NAHA activity assay, fungal sources overall; type: biochemical, fungi
Method: as §1, §2, §3
The experiments were performed with whole cell/organism cultures rather than purified enzyme, which is normally used in experiments on specific inhibition. It is plausible, though, that the surprising non-specific inhibition effect observed for Ag^+ and Hg^+ could be due to the inhibitors being delayed in physically contacting the NAHA enzyme in the fungi when compared to other types of biomass.

[2] = test system: NAHA activity from Dermatophagoides pteronyssinus (Dust mite); assay: NAHA activity assay, dust mite; type: biochemical; settings: Dermatophagoides pteronyssinus (Dust mite), 30 min
Method: as §1, §2, §3

[3] = test system: NAHA activity from Lepidoglyphus destructor (Storage mite); assay: NAHA activity assay, storage mite; type: biochemical; settings: for NAHA activity, control without Ag+ = 100%: Lepidoglyphus destructor (Storage mite), 30 min
Method: as §1, §2, §3

[4] = test system: NAHA activity from Human skin cells; assay: NAHA activity assay, human skin cells; type: biochemical; settings: 30 min
Method: as §1, §2, §3

[5] = test system: NAHA activity from Mucor hiemalis; assay: NAHA activity assay, Mucor hiemalis; type: biochemical
Method: as §1, §2, §3

[6] = test system: NAHA activity from Ambrosia psilostachya (Rag weed pollen); assay: NAHA activity assay, rag weed pollen; type: biochemical; settings: 30 min
Method: as §1, §2, §3

[7] = test system: NAHA activity from Cat dander; assay: NAHA activity assay, cat dander; type: biochemical; settings: 30 min
Method: as §1, §2, §3

[8] = test system: NAHA activity from Acremonium spp.; assay: NAHA activity assay, Acremonium spp.; type: biochemical; settings: Acremonium spp.
Method: as §1, §2, §3

[9] = test system: NAHA activity from Graham-flour; assay: NAHA activity assay (4-methylumbelliferyl N-acetyl-β-D-glucosaminide, fluorescence), Graham-flour; type: biochemical; settings: Graham-flour, 30 min
Method: as §1, §2, §3

[10] = test system: NAHA activity from Penicillium crysogenum; assay: NAHA activity assay, Penicillium crysogenum; type: biochemical; settings: Penicillium crysogenum
Method: as §1, §2, §3

[11] = test system: NAHA activity in Cladosporium spp.; assay: NAHA activity pilot experiment, Cladosporium spp.; type: biochemical; settings: 10 μM
Method: as §1

[12] = test system: NAHA activity from Cladosporium sphaerospermum; assay: NAHA activity assay, Cladosporium sphaerospermum; type: biochemical; settings: Cladosporium sphaerospermum
Method: as §1, §2, §3

[13] = test system: NAHA activity from Aspergillus fumigatus fresh from cultivation; assay: NAHA activity assay, Aspergillus fumigatus fresh from cultivation; type: biochemical
Method: as §1, §2

[14] = test system: NAHA activity in Alternaria spp.; assay: NAHA activity pilot experiment, Alternaria spp.; type: biochemical; settings: 10 μM
Method: as §1

[15] = test system: NAHA activity from Mugworth pollen; assay: NAHA activity assay, mugworth pollen; type: biochemical; settings: 30 min
Method: as §1, §2, §3

[16] = test system: NAHA activity from Aureobasidium pullulans; assay: NAHA activity assay, Aureobasidium pullulans; type: biochemical
Method: as §1, §2, §3

[17] = test system: NAHA activity from Grass pollen; assay: NAHA activity assay, grass pollen; type: biochemical; settings: for NAHA activity, control without Ag+ = 100%: Grass pollen, 30 min
Method: as §1, §2, §3

[18] = test system: NAHA activity from Aspergillus fumigatus freeze dried; assay: NAHA activity assay, Aspergillus fumigatus freeze dried; type: biochemical; settings: Aspergillus fumigatus freeze dried
Method: as §1, §2, §3

[19] = test system: NAHA activity from Fusarium culmorum; assay: NAHA activity assay, Fusarium culmorum; type: biochemical
Method: as §1, §2, §3

non-fungal NAHA activity = assay: NAHA activity assay, non-fungal sources overall; type: biochemical
Method: as §1, §2, §3

[20] = test system: NAHA activity from Birch pollen; assay: NAHA activity assay, birch pollen; type: biochemical; settings: Birch pollen, 30 min
Method: as §1, §2, §3

Q: Which results are given for `O=[N+]([O-])[O-].[Ag+]` [Ag+, AgNO3]?
A: NAHA activity, 0 μM Ag+ = 100% ([1]; Ag+ 10 μM): 97%; NAHA activity, 0 μM Ag+ = 100% ([1]; Ag+ 25 μM): 91%; NAHA activity, 0 μM Ag+ = 100% ([1]; Ag+ 100 μM): 83%; NAHA activity, 0 μM Ag+ = 100% ([1]; Ag+ 400 μM): 93%; reduction of the fungal NAHA activity (fungal NAHA activity; 100 μM in the assay substrate): zero to very low reduction; fungal NAHA activity retained (fungal NAHA activity; 400 μM): a high percentage; inhibition of the fungal NAHA activity (fungal NAHA activity; inhibitor added to the fungal culture prior to the enzyme assay): complete inhibition; NAHA activity, control without Ag+ = 100% ([2]; Ag+ 10 μM): 80%; NAHA activity, control without Ag+ = 100% ([2]; Ag+ 25 μM): 57%; NAHA activity, control without Ag+ = 100% ([2]; Ag+ 100 μM): 13%; NAHA activity, control without Ag+ = 100% ([2]; Ag+ 400 μM): 6%; NAHA activity, control without Ag+ = 100% ([3]; Ag+ 10 μM): 3%; NAHA activity, control without Ag+ = 100% ([3]; Ag+ 25 μM): 2%; NAHA activity, control without Ag+ = 100% ([3]; Ag+ 100 μM): 1%; NAHA activity, control without Ag+ = 100% ([3]; Ag+ 400 μM): 0%; inhibition of NAHA activity ([3]; pilot experiment, 10 μM, mite Lepidoglyphus): almost total inhibition; NAHA activity, control without Ag+ = 100% ([4]; Ag+ 10 μM): 67%; NAHA activity, control without Ag+ = 100% ([4]; Ag+ 25 μM): 65%; NAHA activity, control without Ag+ = 100% ([4]; Ag+ 100 μM): 63%; NAHA activity, control without Ag+ = 100% ([4]; Ag+ 400 μM): 46%; NAHA activity, 0 μM Ag+ = 100% ([5]; Ag+ 10 μM): 88%; NAHA activity, 0 μM Ag+ = 100% ([5]; Ag+ 25 μM): 63%; NAHA activity, 0 μM Ag+ = 100% ([5]; Ag+ 100 μM): 114%; NAHA activity, 0 μM Ag+ = 100% ([5]; Ag+ 400 μM): 57%; NAHA activity, control without Ag+ = 100% ([6]; Ag+ 10 μM): 69%; NAHA activity, control without Ag+ = 100% ([6]; Ag+ 25 μM): 55%; NAHA activity, control without Ag+ = 100% ([6]; Ag+ 100 μM): 19%; NAHA activity, control without Ag+ = 100% ([6]; Ag+ 400 μM): 17%; NAHA activity, control without Ag+ = 100% ([7]; Ag+ 10 μM): 96%; NAHA activity, control without Ag+ = 100% ([7]; Ag+ 25 μM): 69%; NAHA activity, control without Ag+ = 100% ([7]; Ag+ 100 μM): 6%; NAHA activity, control without Ag+ = 100% ([7]; Ag+ 400 μM): 3%; NAHA activity, 0 μM Ag+ = 100% ([8]; Ag+ 10 μM): 175%; NAHA activity, 0 μM Ag+ = 100% ([8]; Ag+ 25 μM): 143%; NAHA activity, 0 μM Ag+ = 100% ([8]; Ag+ 100 μM): 159%; NAHA activity, 0 μM Ag+ = 100% ([8]; Ag+ 400 μM): 132%; effect on the NAHA activity ([8]; pilot experiment, 10 μM): no significant effect; NAHA activity, control without Ag+ = 100% ([9]; Ag+ 10 μM): 35%; NAHA activity, control without Ag+ = 100% ([9]; Ag+ 25 μM): 33%; NAHA activity, control without Ag+ = 100% ([9]; Ag+ 100 μM): 25%; NAHA activity, control without Ag+ = 100% ([9]; Ag+ 400 μM): 19%; NAHA activity, 0 μM Ag+ = 100% ([10]; Ag+ 10 μM): 98%; NAHA activity, 0 μM Ag+ = 100% ([10]; Ag+ 25 μM): 106%; NAHA activity, 0 μM Ag+ = 100% ([10]; Ag+ 100 μM): 87%; NAHA activity, 0 μM Ag+ = 100% ([10]; Ag+ 400 μM): 65%; effect on the NAHA activity [11]: no significant effect; NAHA activity, 0 μM Ag+ = 100% ([12]; Ag+ 10 μM): 212%; NAHA activity, 0 μM Ag+ = 100% ([12]; Ag+ 25 μM): 154%; NAHA activity, 0 μM Ag+ = 100% ([12]; Ag+ 100 μM): 137%; NAHA activity, 0 μM Ag+ = 100% ([12]; Ag+ 400 μM): 167%; NAHA activity, 0 μM Ag+ = 100% ([13]; Ag+ 10 μM): 91%; NAHA activity, 0 μM Ag+ = 100% ([13]; Ag+ 25 μM): 103%; NAHA activity, 0 μM Ag+ = 100% ([13]; Ag+ 100 μM): 95%; NAHA activity, 0 μM Ag+ = 100% ([13]; Ag+ 400 μM): 87%; effect on the NAHA activity [14]: no significant effect; NAHA activity, control without Ag+ = 100% ([15]; Ag+ 10 μM): 46%; NAHA activity, control without Ag+ = 100% ([15]; Ag+ 25 μM): 23%; NAHA activity, control without Ag+ = 100% ([15]; Ag+ 100 μM): 9%; NAHA activity, control without Ag+ = 100% ([15]; Ag+ 400 μM): 8%; NAHA activity, 0 μM Ag+ = 100% ([16]; Ag+ 10 μM): 89%; NAHA activity, 0 μM Ag+ = 100% ([16]; Ag+ 25 μM): 91%; NAHA activity, 0 μM Ag+ = 100% ([16]; Ag+ 100 μM): 96%; NAHA activity, 0 μM Ag+ = 100% ([16]; Ag+ 400 μM): 76%; NAHA activity, control without Ag+ = 100% ([17]; Ag+ 10 μM): 41%; NAHA activity, control without Ag+ = 100% ([17]; Ag+ 25 μM): 22%; NAHA activity, control without Ag+ = 100% ([17]; Ag+ 100 μM): 6%; NAHA activity, control without Ag+ = 100% ([17]; Ag+ 400 μM): 8%; inhibition of NAHA activity ([17]; pilot experiment, 10 μM, grass pollen): almost total inhibition; NAHA activity, 0 μM Ag+ = 100% ([18]; Ag+ 10 μM): 104%; NAHA activity, 0 μM Ag+ = 100% ([18]; Ag+ 25 μM): 108%; NAHA activity, 0 μM Ag+ = 100% ([18]; Ag+ 100 μM): 98%; NAHA activity, 0 μM Ag+ = 100% ([18]; Ag+ 400 μM): 91%; NAHA activity, 0 μM Ag+ = 100% ([19]; Ag+ 10 μM): 107%; NAHA activity, 0 μM Ag+ = 100% ([19]; Ag+ 25 μM): 107%; NAHA activity, 0 μM Ag+ = 100% ([19]; Ag+ 100 μM): 110%; NAHA activity, 0 μM Ag+ = 100% ([19]; Ag+ 400 μM): 102%; reduction of the non-fungal NAHA activity, on average (non-fungal NAHA activity; 100 μM in the assay substrate): 82%; NAHA activity retained, average of non-fungal sources, of the control (non-fungal NAHA activity; 400 μM): 13%; NAHA activity, control without Ag+ = 100% ([20]; Ag+ 10 μM): 91%; NAHA activity, control without Ag+ = 100% ([20]; Ag+ 25 μM): 74%; NAHA activity, control without Ag+ = 100% ([20]; Ag+ 100 μM): 18%; NAHA activity, control without Ag+ = 100% ([20]; Ag+ 400 μM): 11%
